Assay results taken from BindingDB's records for doi:10.1021/bi00180a024 (Medical University of South Carolina, 1994).

Molecular target: T1, 5-hydroxytryptamine receptor 1A (Homo sapiens, UniProt P08908)
T1 sequence (P08908 whole entry): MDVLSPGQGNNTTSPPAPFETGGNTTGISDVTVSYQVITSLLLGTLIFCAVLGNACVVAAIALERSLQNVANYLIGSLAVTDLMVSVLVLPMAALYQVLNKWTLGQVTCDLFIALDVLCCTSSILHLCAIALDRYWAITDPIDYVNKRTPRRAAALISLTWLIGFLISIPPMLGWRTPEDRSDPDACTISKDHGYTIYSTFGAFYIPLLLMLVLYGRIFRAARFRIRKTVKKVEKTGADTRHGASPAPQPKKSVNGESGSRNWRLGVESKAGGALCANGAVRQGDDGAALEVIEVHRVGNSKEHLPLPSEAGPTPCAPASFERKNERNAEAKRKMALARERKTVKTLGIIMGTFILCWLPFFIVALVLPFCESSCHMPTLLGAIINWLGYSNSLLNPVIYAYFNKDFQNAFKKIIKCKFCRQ

**Q.** How did the Ki turn out when `O=C1c2ccccc2S(=O)(=O)N1CCCCN1CCN(c2ncccn2)CC1` [1,1-Dioxo-2-[4-(4-pyrimidin-2-yl-piperazin-1-yl)-butyl]-1,2-dihydro-1lambda*6*-benzo[d]isothiazol-3-one] was run?
**A.** 130 nM
